According to patent publication US4923852A, “Aminoalkyl naphthalenediols as host resistance enhancers against viral infections” (Merck & Co., Inc., priority 1987, dated 1990):
Entries after “also recorded” stand apart in the source; their conditions may differ. Read-outs that look alike come from different tables or passages of the source.

Key:
[1] = tested on: HIV reverse transcriptase; settings: cited from earlier work
[2] = tested on: AIDS or AIDS-related complex (ARC); settings: clinical; cited from earlier work
[3] = cited from earlier work
HIV [4] = settings: clinical; cited from earlier work
Pseudomonas aeruginosa = assay: In vivo immunopotentiation against challenge with lethal doses of Pseudomonas aeruginosa, cyclophosphamide-immunocompromised mouse; parameters: species or system mouse (random outbred albino CFl female); settings: 250 mg/kg cyclophosphamide i.p., 4 days prior to challenge
Procedure: An immunocompromised mouse model, established by intraperitoneal treatment of random outbred albino CFl female mice (ca. 25g) with 250 mg/kg body weight of cyclophosphamide (CY) 4 days Prior to bacterial challenge with Pseudomonas aeruginosa, was used as the assay system. In this model, test compounds were injected only once (2 hours) after CY treatment. After bacterial challenge, LD50 's (50% lethal doses) were determined. Increased LD50 's in treated mice over controls indicated a return to normality. The LD50 for untreated or vehicle-treated mice was routinely 10^6 -10^7 colony forming units (CFU) of P. aeruginosa organisms. After CY treatment, the LD50 was reduced to 10^1 to 10^2 CFU's. The protection afforded by test compound (Protective Index) was determined by calculating the number of LD50 's of protection of treated animals over the LD50 of CY controls.

[5] = tested on: reverse transcriptase in several retroviruses; settings: in vitro; cited from earlier work
HIV [6] = settings: cited from earlier work
[7] = tested on: AIDS-related Kaposi's sarcoma; settings: some AIDS-related Kaposi's sarcoma cases; cited from earlier work
T cell levels = settings: 13 AIDS patients with perpetually swollen glands; cited from earlier work
[8] = in vivo, cited from earlier work

Cc1ccc(C(=O)Nc2ccc(S(=O)(=O)O)c3cc(S(=O)(=O)O)cc(S(=O)(=O)O)c23)cc1NC(=O)c1cccc(NC(=O)Nc2cccc(C(=O)Nc3cc(C(=O)Nc4ccc(S(=O)(=O)O)c5cc(S(=O)(=O)O)cc(S(=O)(=O)O)c45)ccc3C)c2)c1 [Suramin]
inhibition of HIV reverse transcriptase [1]: Potent inhibitor of HIV reverse transcriptase
efficacy in AIDS or ARC patients [2]: little or no evidence of clinical improvement or immunologic recovery

NC(=O)c1ncn([C@@H]2O[C@H](CO)[C@@H](O)[C@H]2O)n1 [Ribavirin, 1-β-D-ribofuranosyl-1,2,4-triazole-3-carboxamide]
safety profile ([3]; in vivo): acceptable
tolerability ([3]; in vivo): well tolerated
effect on immune function in patients [2]: improved immune function in AIDS patients
effect on HIV reproduction / viral replication in humans (HIV [4]): inhibited viral replication

O=P1(N(CCCl)CCCl)NCCCO1 (stereo not shown) [cyclophosphamide]
LD50 of P. aeruginosa after CY treatment (Pseudomonas aeruginosa): 10^1 to 10^2 CFU

ammonium 21-tungsto-9-antimoniate [HPA-23]
efficacy in AIDS or ARC patients [2]: no therapeutic benefit has been documented in AIDS patients
inhibition of reverse transcriptase in several retroviruses [5]: Inhibits reverse transcriptase in several retroviruses in vitro
effect on HIV infectivity / growth (HIV [6]): some tendency to check the growth of HIV

CO[C@H]1/C=C/O[C@@]2(C)Oc3c(C)c(O)c4c(c3C2=O)C2=NC3(CCN(CC(C)C)CC3)NC2=C(NC(=O)/C(C)=C\C=C\[C@H](C)[C@H](O)[C@@H](C)[C@@H](O)[C@@H](C)[C@H](OC(C)=O)[C@@H]1C)C4=O [Ansamycin, rifabutin]
efficacy in AIDS or ARC patients [2]: some efficacy in treating AIDS patients with an opportunistic infection caused by the bacterium Mycobacterium aviumintracellulare

α-Interferon
tumor regression [7]: induced tumor regression in some AIDS-related Kaposi's sarcoma cases
effect on HIV infectivity / growth (HIV [6]): Checks the growth of HIV in vitro

CC(=O)Nc1ccc(C(=O)O)cc1.CC(=O)Nc1ccc(C(=O)O)cc1.CC(=O)Nc1ccc(C(=O)O)cc1.CC(O)CN(C)C.CC(O)CN(C)C.CC(O)CN(C)C.O=c1[nH]cnc2c1ncn2[C@@H]1O[C@H](CO)[C@@H](O)[C@H]1O [Inosine pranobex, p-Acetamidobenzoic acid salt of dimethylaminoisopropanol: inosinate complex]
effect on immune function in patients [2]: improve immune function in ARC patients

CC(C)(S)[C@@H](N)C(=O)O [D-Penicillamine, 3-mercapto-D-valine]
effect on HIV reproduction / viral replication in humans (HIV [4]): Inhibits HIV reproduction in humans; also recorded: suppressed the virus
effect on T cell levels (T cell levels): temporarily depressed T cell levels

CC(C)(N1CC1C#N)N1CC1C(N)=O (stereo not shown) [Azimexon]
adverse / toxic effects in humans ([3]; clinical): only toxic effect was mild hemolysis
efficacy in AIDS or ARC patients [2]: improvements in symptoms and immune function in patients with ARC but not AIDS

O=C(O)P(=O)(O)O [Foscarnet, trisodium phosphonoformate]
adverse / toxic effects in humans ([3]; in vivo): serious side effects
inhibition of HIV reverse transcriptase [1]: Inhibits HIV reverse transcriptase activity in vitro at levels pharmacologically acceptable in vivo

Cc1cn([C@H]2C[C@H](N=[N+]=[N-])[C@@H](CO)O2)c(=O)[nH]c1=O [Azidothymidine, 3'-azido-3'-deoxythymidine]
adverse / toxic effects in humans ([3]; clinical): some toxicity, with anemia and headaches
oral absorption ([8]; po): Well absorbed orally
half-life in the body [8]: relatively short half-life
penetration of central nervous system [8]: effectively penetrates central nervous system
efficacy in AIDS or ARC patients [2]: promise in prolonging lives of patients with AIDS or AIDS-related complex (ARC)
